We go through 11 compounds from patent US5474988A, “5-phenylpyrrolo-1,4-benzoxazine and 5-phenylpyrrolo-1,4-benzothiazine compounds, process and intermediates for their production and pharmaceutical compositions containing them” (Kali-Chemie Pharma GmbH, priority 1993, dated 1995).

One assay concerns 5-lipoxygenase. As to the kind of experiment: inhibition of 5-lipoxygenase activity in polymorphonuclear rat leucocytes (LTB4 formation). The conditions noted are these: 10^-5 mol/l; 22° C. It is filed as cell-based. The text has this: 4. In vitro determination of 5-lipoxygenase inhibition. 4a. In vitro determination of inhibition of 5-lipoxygenase activity in polymorphonuclear rat leucocytes. Arachidonic acid contained in cell membranes is released after activiation of the polymorphonuclear leucocytes (=PMN). During the course of this, under the action of the enzyme 5-lipoxygenase (=5-LO) arachidonic acid metabolites are synthesized which can be converted to leucotriene B4 (=LTB4) by LTA4 hydrolase. LTB4 is a principal metabolite of the arachidonic acid metabolism taking place on activation of the enzyme 5-LO by the inflammatory stimulus in the cell membrane. In in vitro systems, this metabolite is secreted from PMNs. […] To accomplish this, the content of LTB4 in a culture medium of rat peritoneal PMNs was determined after stimulation by calcimycin (=calcium-ionophore A23187) such as described by […] et al., Can. J. Physiol. Pharmacol. 67 (1989), 17. A cell suspension containing peritoneal PMNs of male Sprague-Dawley rats (body weight 200 to 250 g) was obtained in a known manner as follows: 6 ml of a solution containing 27.9 g/l of sodium thioglycolate were injected i.p. into the animals in order to induce the PMN invasion due to this inflammatory stimulus. After 22 hours, the animals were sacrificed by means of lethal ether anaesthesia. 20 ml of a Hank's salt solution (=Hank's Balanced Salt Solution=HBSS), but without Ca^++ and Mg^++ ions and with 0.2% by weight of sodium citrate, were then injected into the abdominal cavity. The suspension of accumulated cells was removed from the abdominal cavity and the cells were separated by centrifugation (10 minutes at 400×g). The cells were purified by repeated centrifugation in the presence of Ficoll-Paque®, (=metrizoic acid preparation, […], manufacturer Pharmacia), then washed twice with HBSS containing Ca^++ and Mg^++ ions and resuspended in HBSS containing Ca^ ++ and Mg^++ ions and buffered with 10 mM HEPES (=hydroxyethylpiperazinoethanesulfonic acid). In order to carry out the tests, samples of 0.7 ml of the PMN suspension (=0.5×10^6 cells) in each case were incubated for 15 minutes at 22° C. in plastic tubes containing 10 μM of the test substance in dimethylformamide or, as a control experiment, only containing dimethylformamide. The LTB4 synthesis was initiated in the samples by addition of calcimycin (final concentration 5 μm), and the samples were incubated for 10 minutes at 22° C. Only solvent was added to blank control samples. After 10 minutes, the reaction was terminated by addition of 0.3 ml of cold methanol. The samples were kept for 1 hour at 4° C. and then centrifuged (5 minutes at 10,000×g). The supernatant liquid was investigated to determine its LTB4 content by means of reverse phase high-pressure liquid chromatography (=reverse phase HPLC). […] The LTB4 was identified by comparison with authentic standard solutions eluting at the same time and determined at a wavelength of 270 nm. The LTB4 contents are determined from comparison with calibrated standard solutions, and from this the inhibitory activity of the test substances was calculated in % inhibition of the LTB4 synthesis in comparison with the control samples containing no test substance.
Take `Cc1ccnc(N2CCN(CCCC3Cn4c(-c5ccc(O)cc5)c(C)c5cccc(c54)O3)CC2)c1` (stereo not shown) [Example 16]: the “In vitro inhibitory activity on LTB4 formation in rat PMNs stimulated by calcium ionophore A23187” value is given as 60%. Turning to `Cc1ccnc(N2CCN(CCC3Cn4c(-c5ccc(O)cc5)c(C)c5cccc(c54)S3)CC2)c1` (stereo not shown) [Example 21], the “In vitro inhibitory activity on LTB4 formation in rat PMNs stimulated by calcium ionophore A23187” value is on record as 42%. As for `COc1cc(-c2c(C)c3cccc4c3n2CC(CCN2CCN(c3ncccc3C)CC2)O4)ccc1O` (stereo not shown) [Example 35], the “In vitro inhibitory activity on LTB4 formation in rat PMNs stimulated by calcium ionophore A23187” value is on record as 79%. As for `Cc1c(-c2ccc(O)cc2)n2c3c(cccc13)OC(CCC(=O)N1CCN(c3ccccn3)CC1)C2` (stereo not shown) [Example 36], the “In vitro inhibitory activity on LTB4 formation in rat PMNs stimulated by calcium ionophore A23187” value came out at 89%.

Turning to `COc1cc(-c2c(C)c3cccc4c3n2CC(CCC(=O)N2CCN(c3cc(C)ccn3)CC2)O4)ccc1O` (stereo not shown) [Example 38], the “In vitro inhibitory activity on LTB4 formation in rat PMNs stimulated by calcium ionophore A23187” value was 97%. On the same count and under the same terms, the value for `Cc1cc(-c2c(C)c3cccc4c3n2CC(CCN2CCC(N(C)c3nccc(=O)[nH]3)CC2)O4)cc(C)c1O` (stereo not shown) [Example 40] was 82%. Same read-out and setting: the same measure for `Cc1ccnc(N2CCN(C(=O)CCC3Cn4c(-c5ccc(O)c(O)c5)c(C)c5cccc(c54)O3)CC2)c1` (stereo not shown) [Example 49]: 88%; for `Cc1ccc(N2CCN(CCC3Cn4c(-c5cc(C)c(O)c(C)c5)c(C)c5cccc(c54)O3)CC2)nc1` (stereo not shown) [Example 62]: 56%.

The target of a further assay is T1, 5-lipoxygenase (Cavia porcellus, UniProt A0A286X958).
T1 construct: The 5-LO was concentrated in a known manner from PMNs of male Dunkin-Hartley guinea-pigs; endogenous in cells; host or cells: peritoneal PMNs of male Dunkin-Hartley guinea-pigs, homogenized; 10,000 x g supernatant used as enzyme solution
T1 sequence (A0A286X958 1-674): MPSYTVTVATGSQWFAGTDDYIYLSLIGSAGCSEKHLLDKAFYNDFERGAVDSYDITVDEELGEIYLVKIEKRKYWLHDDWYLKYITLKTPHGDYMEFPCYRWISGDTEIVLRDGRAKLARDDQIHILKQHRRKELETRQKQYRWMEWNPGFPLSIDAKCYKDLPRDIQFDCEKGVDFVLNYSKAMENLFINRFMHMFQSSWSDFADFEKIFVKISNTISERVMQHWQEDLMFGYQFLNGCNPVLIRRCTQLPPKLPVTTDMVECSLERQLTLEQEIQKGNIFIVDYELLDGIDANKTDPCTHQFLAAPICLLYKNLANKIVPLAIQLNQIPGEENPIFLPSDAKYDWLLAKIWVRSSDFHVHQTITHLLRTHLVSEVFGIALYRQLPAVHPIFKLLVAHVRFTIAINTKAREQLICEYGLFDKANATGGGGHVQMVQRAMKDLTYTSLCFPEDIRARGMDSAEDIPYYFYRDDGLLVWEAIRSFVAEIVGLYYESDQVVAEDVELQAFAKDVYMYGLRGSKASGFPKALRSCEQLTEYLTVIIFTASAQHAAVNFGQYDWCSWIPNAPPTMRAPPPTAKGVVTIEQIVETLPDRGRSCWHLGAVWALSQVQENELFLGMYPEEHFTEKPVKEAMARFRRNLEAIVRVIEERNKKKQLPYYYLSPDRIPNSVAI
The assay is described as follows: inhibitory activity on free 5-lipoxygenase concentrated from peritoneal PMNs of the guinea-pig (5-HETE formation). It is filed as biochemical. The conditions noted are these: 10^-5 mole/liter; guinea-pig 5-LO, 37° C.; read-out: In vitro % inhibitory activity on 5-HETE formation caused by free 5-LO. The text has this: 4b. In vitro determination of inhibitory activity on 5-lipoxygenase concentrated from peritoneal PMNs of the guinea-pig.
An inhibition of 5-lipoxygenase can be caused by direct inhibitory action of the substances on the enzyme and/or by interference with the activation of the enzyme. While in test 4a the 5-lipoxygenase inhibition of the substances was investigated in rat PMN cells, in test 4b the inhibitory activity of the substances was investigated on free 5-LO concentrated from guinea-pig PMN cells according to the method of D. Aharony et al., J. Biol. Chem. 261 (1986), 11512-11519 (1986).
The 5-LO was concentrated in a known manner from PMNs of male Dunkin-Hartley guinea-pigs (body weight 400 to 500 g) as follows. 10 ml of a solution containing 27.9 g/l of sodium thioglycolate were injected i.p. into the animals in order to induce the PMN invasion as a result of this inflammatory stimulus. After 22 hours, the animals were sacrificed by lethal ether anaesthesia. 70 ml of HBSS without Ca^++ and Mg^++ ions and containing 0.2% by weight of sodium citrate were then injected into the abdominal cavity. The cell suspension (>80% of the cells are PMNs) was withdrawn from the abdominal cavity, filtered through a cheese-making filter cloth, and washed twice with a 50 mM potassium phosphate buffer solution of pH 7.4, which contained 0.5 mM ethylenediaminetetraacetic acid, 1% by weight of gelatine and 20 μM indomethacin. The cells were resuspended, and the PMN suspension containing 10^8 cells/ml was homogenized three times for 15 seconds each in an ice-bath in a homogenizer of the Labsonic™ type set at high speed. The resulting suspension was centrifuged at 4° C. (15 minutes at 10,000×g). The supernatant liquid was used for the investigation as a solution of the free 5-LO enzyme.
The experiments were carried out at 37° C. for 7 minutes using 0.625 ml samples of this enzyme solution. For the experiments, the enzyme solution (=equivalent of 2.5×10^7 cells), 0.5 mM glutathione, 1 mM ATP and 0.3 mM calcium chloride were added to test tubes. […] of the test substance were added to the samples dissolved in sufficient dimethylformamide such that the dimethylformamide concentration in each test tube is 0.5%. Only dimethylformamide was added to the control samples. After 2 minutes, the formation of 5-(S)-hydroxy-6,8,11,14-eicosatetraenoic acid (=[…]) was initiated by addition 10 μM arachidonic acid. After 5 minutes, the reaction was terminated by addition of 0.625 ml of a mixture of methyl acetate/methanol/0.2 m citric acid 15:2:0.5 v/v/v. 5-HETE was extracted twice using this solvent mixture. The 5-HETE-containing phases were combined and evaporated to dryness under a nitrogen atmosphere. The residue was taken up in a mixture of methanol/water/acetic acid 75:21:0.02 v/v/v having a pH of 5.7, and the solution was investigated for its content of 5-HETE by means of reverse phase HPLC. To accomplish this, a […] silanized silica gel column (Hichrom® ODS2, 250×4.6 mm) was employed as the adsorbent and a mixture of methanol/water/acetic acid 75:21:0.02 adjusted to pH 5.7 with ammonia and having a flow rate of 1 ml/min was used as the eluent. 5-HETE, which was eluted as a single peak after 20 minutes, was identified by comparison with standard solutions eluted at the same time and determined using a UV light detector at a wavelength of 235 nm. Quantitative determination was carried out by comparison of the peak area obtained with peak areas occurring in the calibrated standard solutions. From the 5-HETE contents of the samples determined, the inhibitory activity of the test substances was calculated in % inhibition of 5-HETE synthesis in comparison to the control samples containing no test substance.
With `Cc1ccnc(N2CCN(CCCC3Cn4c(-c5cc(C)c(O)c(C)c5)c(C)c5cccc(c54)O3)CC2)c1` (stereo not shown) [Example 11], the inhibition at 10 µM turned out to be 95%. For `Cc1ccnc(N2CCN(CCCC3Cn4c(-c5ccc(O)cc5)c(C)c5cccc(c54)O3)CC2)c1` (stereo not shown) [Example 16], the inhibition at 10 µM is 57%. Regarding `Cc1ccnc(N2CCN(CCC3Cn4c(-c5ccc(O)cc5)c(C)c5cccc(c54)S3)CC2)c1` (stereo not shown) [Example 21], the inhibition at 10 µM came to 30%. On to `COc1cc(-c2c(C)c3cccc4c3n2CC(CCN2CCN(c3ncccc3C)CC2)O4)ccc1O` (stereo not shown) [Example 35], for which the inhibition at 10 µM is 55%. Regarding `Cc1c(-c2ccc(O)cc2)n2c3c(cccc13)OC(CCC(=O)N1CCN(c3ccccn3)CC1)C2` (stereo not shown) [Example 36], the inhibition at 10 µM stood at 65%.

For `COc1cc(-c2c(C)c3cccc4c3n2CC(CCC(=O)N2CCN(c3cc(C)ccn3)CC2)O4)ccc1O` (stereo not shown) [Example 38], the inhibition at 10 µM was found to be 100%. With `Cc1cc(-c2c(C)c3cccc4c3n2CC(CCN2CCC(N(C)c3nccc(=O)[nH]3)CC2)O4)cc(C)c1O` (stereo not shown) [Example 40], the inhibition at 10 µM was 56%.

With `Cc1ccnc(N2CCN(C(=O)CCC3Cn4c(-c5ccc(O)c(O)c5)c(C)c5cccc(c54)O3)CC2)c1` (stereo not shown) [Example 49], the inhibition at 10 µM is 99%. In the case of `Cc1cc(-c2c(C)c3cccc4c3n2CC(CCN2CCN(c3ccccn3)CC2)O4)cc(C)c1O` (stereo not shown) [Example 59], the inhibition at 10 µM is 70%. `Cc1ccc(N2CCN(CCC3Cn4c(-c5cc(C)c(O)c(C)c5)c(C)c5cccc(c54)O3)CC2)nc1` (stereo not shown) [Example 62]: the inhibition at 10 µM was found to be 77%.

As for `COc1cc(-c2c(C)c3cccc4c3n2CC(CCCCN2CCN(c3cc(C)ccn3)CC2)S4)cc(C)c1O` (stereo not shown) [Example 64], the inhibition at 10 µM stood at 74%.
